The results in this text go back to publication PMC10824666 (Nature Cancer, 2023).

Holding throughout (experiment): biochemical
Holding throughout (set-up): Eurofins DiscoverX kinase panel, competitive binding assay at 1 uM, percent of DMSO control
Holding throughout (conditions): competitive binding, percent of DMSO control

One test deals with JAK2 (Homo sapiens, UniProt O60674). The protocol:
(§1) Extended Data Fig. 3 In vitro characterization of potent and selective KIF18A inhibitors. a, KIF18A compounds (1 µM) were assessed across a panel of kinases (n = 96) by a competitive binding assay. Graph presented as percentage of control (POC); dashed line indicates POC value of 30 (n = 1 experiment). b, Tubulin polymerization analysis. Profile of KIF18A compounds (10 µM) relative to DMSO, paclitaxel (5 µM, tubulin stabilizer), or nocodazole (5 µM, tubulin destabilizer). Graphs presented as tubulin fluorescence signal at 440 nm expressed as arbitrary units (a.u.) versus time (min) with area-under-the-curve (AUC) values (n = 1 or 3 independent experiments). c, Mitotic spindle image analysis. […] Representative images were captured with x40 objective (scale bar = 10 µm) (n = 1 experiment). d-f, KIF18A compound effects on HeLa cells. d, Cells were treated for 96 h with DMSO or KIF18A compounds at the indicated concentrations. KIF18A compound concentration-response profiles presented as count relative to the percentage of DMSO control (POC) with count EC50 values (n = 2 independent experiments in duplicate). e, KIF18A protein localization in cells after treatment for 6 hours with DMSO or AM-1882 (0.05 µM). Cells stained to detect DNA, KIF18A, and centrin-3. Representative images of mitotic cells (n = 3 per group) were captured with x60 objective (scale bar = 5 µm) and graphs of line scan measurements were obtained for DNA, KIF18A, and centrin-3 channels expressed as fluorescence intensity (a.u.) versus distance (µm) (n = 1 experiment). f, Mitotic cell fate imaging analysis. HeLa Kyoto cells co-expressing α-tubulin-EGFP and H2B-mCherry proteins released from a G1S block in media containing DMSO or AM-1882 (0.2 µM). Analysis was performed on cells entering the first mitosis (n = 40 cells per group). Graph presented as time in mitosis (h) versus mitotic cell fate, either complete cell division (CCD) or death in mitosis (DiM). Classified cells exiting mitosis by the number of daughter cells and cell death in […] We screened a small-molecule library of diverse compounds for selective inhibitors of KIF18A MT-ATPase motor activity. Two compound hits were discovered that phenocopied the effects of KIF18A KD in cells; these hits are structurally distinct from the KIF18A inhibitor BTB-1 (refs. [27],[28]). […] However, the potency of the KIF18A inhibitors was unaffected by varying ATP and MT concentrations (Extended Data Fig. 2d). This supports our proposed model in which KIF18A inhibitors occupy an allosteric pocket formed by motor helices α4 and α6 close to the motor MT-binding surface. To screen for potential off-target interactions with essential mitotic kinases, three of the KIF18A compounds were profiled against a large panel of kinases. […] We next investigated whether our KIF18A inhibitors affected tubulin polymerization in vitro in the absence of the KIF18A motor. All four KIF18A compounds had tubulin-polymerization profiles similar to that of the DMSO control and distinct from those of the paclitaxel (MT stabilizer) and nocodazole (MT destabilizer) co

In a further test the target is T1, TGFBR1 (Homo sapiens, UniProt P36897).
T1 sequence (P36897 1-503): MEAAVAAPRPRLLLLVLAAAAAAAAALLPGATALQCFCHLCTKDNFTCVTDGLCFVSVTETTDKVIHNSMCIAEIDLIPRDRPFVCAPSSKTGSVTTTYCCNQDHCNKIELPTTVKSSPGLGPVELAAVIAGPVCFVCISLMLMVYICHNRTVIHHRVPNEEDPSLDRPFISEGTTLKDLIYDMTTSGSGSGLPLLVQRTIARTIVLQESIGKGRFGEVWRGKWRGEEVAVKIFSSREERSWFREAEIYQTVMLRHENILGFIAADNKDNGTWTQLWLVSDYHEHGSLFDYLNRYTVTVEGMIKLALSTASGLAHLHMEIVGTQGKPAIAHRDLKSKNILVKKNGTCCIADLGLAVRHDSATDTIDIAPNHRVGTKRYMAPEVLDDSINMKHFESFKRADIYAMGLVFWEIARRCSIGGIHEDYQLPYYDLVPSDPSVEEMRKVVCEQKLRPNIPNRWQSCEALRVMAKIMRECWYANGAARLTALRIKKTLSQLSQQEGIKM
How it is done: as §1

The target in another test is T2, FLT3 (Homo sapiens, UniProt P36888).
T2 sequence (P36888 1-993): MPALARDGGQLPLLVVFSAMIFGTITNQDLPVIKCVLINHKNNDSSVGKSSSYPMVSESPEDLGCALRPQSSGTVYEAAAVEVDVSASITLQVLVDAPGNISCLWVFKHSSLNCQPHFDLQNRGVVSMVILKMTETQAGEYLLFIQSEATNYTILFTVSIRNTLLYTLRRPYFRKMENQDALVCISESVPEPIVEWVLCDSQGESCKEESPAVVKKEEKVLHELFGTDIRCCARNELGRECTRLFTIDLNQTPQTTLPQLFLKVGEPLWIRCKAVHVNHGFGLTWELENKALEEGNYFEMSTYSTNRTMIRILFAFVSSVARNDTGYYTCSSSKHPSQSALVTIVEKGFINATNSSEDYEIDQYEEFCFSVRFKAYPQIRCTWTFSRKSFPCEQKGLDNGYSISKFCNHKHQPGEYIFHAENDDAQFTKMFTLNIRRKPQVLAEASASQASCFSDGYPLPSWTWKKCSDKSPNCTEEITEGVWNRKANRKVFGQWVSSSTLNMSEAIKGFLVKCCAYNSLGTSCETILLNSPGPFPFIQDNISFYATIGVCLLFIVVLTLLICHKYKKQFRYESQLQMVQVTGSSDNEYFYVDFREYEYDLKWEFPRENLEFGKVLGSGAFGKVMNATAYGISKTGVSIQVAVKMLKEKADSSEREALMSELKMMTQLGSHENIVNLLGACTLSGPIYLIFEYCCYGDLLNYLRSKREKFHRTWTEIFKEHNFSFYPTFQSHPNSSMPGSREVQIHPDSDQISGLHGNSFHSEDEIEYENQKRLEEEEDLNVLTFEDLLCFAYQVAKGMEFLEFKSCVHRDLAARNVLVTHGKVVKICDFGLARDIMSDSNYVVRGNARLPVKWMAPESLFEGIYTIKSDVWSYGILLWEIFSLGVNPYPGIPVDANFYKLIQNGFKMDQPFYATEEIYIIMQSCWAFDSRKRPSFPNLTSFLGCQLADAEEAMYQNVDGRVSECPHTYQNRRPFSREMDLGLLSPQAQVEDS
The protocol:
as §1

Where [1] appears, read: read-out: Kinome Profiling performed by Eurofins DiscoverX / AM-0277, 1.0 µM / POC.
Setting [2] is: read-out: Kinome Profiling performed by Eurofins DiscoverX / AM-1882, 1.0 µM / POC.
Where [3] appears, read: read-out: Kinome Profiling performed by Eurofins DiscoverX / AM-5308, 1.0 µM / POC.

Read-outs that look alike come from different tables or passages of the source.

Sequence of JAK2 (O60674 whole entry): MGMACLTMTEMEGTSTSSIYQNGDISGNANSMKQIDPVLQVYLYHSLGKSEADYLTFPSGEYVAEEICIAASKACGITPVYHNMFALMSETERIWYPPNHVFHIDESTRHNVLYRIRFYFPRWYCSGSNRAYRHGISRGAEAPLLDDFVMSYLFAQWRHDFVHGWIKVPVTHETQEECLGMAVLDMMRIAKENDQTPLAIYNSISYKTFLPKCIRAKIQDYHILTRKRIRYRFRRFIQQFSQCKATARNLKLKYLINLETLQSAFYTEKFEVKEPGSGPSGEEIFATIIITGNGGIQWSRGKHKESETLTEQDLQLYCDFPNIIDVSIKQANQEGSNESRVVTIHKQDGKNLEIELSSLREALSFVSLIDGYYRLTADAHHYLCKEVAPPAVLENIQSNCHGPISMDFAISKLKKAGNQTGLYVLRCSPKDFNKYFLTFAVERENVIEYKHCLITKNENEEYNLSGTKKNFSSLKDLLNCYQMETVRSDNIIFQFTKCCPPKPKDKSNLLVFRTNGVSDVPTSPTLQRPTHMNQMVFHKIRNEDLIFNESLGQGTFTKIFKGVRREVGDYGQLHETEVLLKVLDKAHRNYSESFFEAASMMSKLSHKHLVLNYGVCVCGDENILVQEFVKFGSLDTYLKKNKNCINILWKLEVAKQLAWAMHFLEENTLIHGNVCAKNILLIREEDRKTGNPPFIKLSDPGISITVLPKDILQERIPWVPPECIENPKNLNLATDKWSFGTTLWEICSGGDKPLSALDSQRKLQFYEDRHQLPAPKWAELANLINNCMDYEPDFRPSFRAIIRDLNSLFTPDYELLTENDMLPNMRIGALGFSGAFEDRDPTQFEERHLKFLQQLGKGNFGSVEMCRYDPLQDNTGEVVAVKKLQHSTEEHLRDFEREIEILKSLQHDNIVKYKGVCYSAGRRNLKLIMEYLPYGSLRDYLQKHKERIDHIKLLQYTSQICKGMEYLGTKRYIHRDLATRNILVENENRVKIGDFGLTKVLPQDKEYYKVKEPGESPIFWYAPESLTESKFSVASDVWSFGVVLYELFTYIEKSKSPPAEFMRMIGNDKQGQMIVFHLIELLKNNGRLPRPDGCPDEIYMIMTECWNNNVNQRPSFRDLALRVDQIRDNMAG

With `CC(C)(CO)Nc1ccc(C(=O)Nc2cccc(S(=O)(=O)C3CCCC3)c2)c(N2CCC3(CC2)CC3)n1` [AM-0277], the values for the remaining activity at 1 µM on JAK2 (setting [1]), at TGFBR1 (setting [1]) and at FLT3 (setting [1]) were 100%, 73% and 94%, respectively.

Turning to `CC(C)(C)NS(=O)(=O)c1cccc(NC(=O)c2ccc(S(=O)(=O)NC(C)(C)C)cc2N2CCC3(CC2)CC3)c1` [AM-1882], the results for the remaining activity at 1 µM at JAK2 (setting [2]), on TGFBR1 (setting [2]) and at FLT3 (setting [2]) were 100%, 94% and 88%, respectively.

Regarding `C[C@@H]1CN(c2cccc(NC(=O)c3ccc(NS(=O)(=O)CCO)cc3N3CCC4(CC3)CC4)n2)CCO1` [AM-5308], the remaining activity at 1 µM at JAK2 (setting [3]) was determined as 94.5%; on TGFBR1 (setting [3]) it was 100%; on FLT3 (setting [3]), 90.5%.
